Source: ChEMBL document CHEMBL1131884, “Dicationic 2-fluorenonylcarbapenems: potent anti-MRS agents with improved solubility and pharmacokinetic properties” (Bioorg Med Chem Lett, 1999)
Converted amounts (≈) assume the structure as drawn.

What was measured:
[1] = Half life compared to Cilastatin evaluated in Rhesus monkeys at the dose of 10 mg/kg by iv bolus injection; format: ADME, organism-based; set-up: dose 10 mg/kg, route intravenous; details: cercopithecidae, in vivo, read-out: Beta t1/2 (converted)
[2] = Plasma clearance compared to Cilastatin evaluated in Rhesus monkeys at the dose of 10 mg/kg by iv bolus injection; format: ADME, organism-based; set-up: dose 10 mg/kg, route intravenous; details: cercopithecidae
[3] = Renal clearance compared to Cilastatin evaluated in Rhesus monkeys at the dose of 10 mg/kg by iv bolus injection; format: ADME, organism-based, Kidney; set-up: dose 10 mg/kg, route intravenous; details: cercopithecidae, in vivo, read-out: Renal clearance
[4] = Urinary recovery compared to Cilastatin evaluated in Rhesus monkeys at the dose of 10 mg/kg by iv bolus injection; format: ADME, organism-based, Urine; set-up: dose 10 mg/kg, route intravenous; details: cercopithecidae, in vivo
[5] = AUC (area under curve) compared to Cilastatin evaluated in Rhesus monkeys at the dose of 10 mg/kg by iv bolus injection; format: ADME, organism-based; set-up: dose 10 mg/kg, route intravenous; details: cercopithecidae, plasma
MecA = molecular target: T1, MecA (Staphylococcus aureus, UniProt Q7DHH4); assay: Binding affinity against PBP2a receptor by competition analysis with [3H]benzylpenicillin using cell membrane fractions from the MRSA COL strain.
T1 sequence (Q7DHH4 whole entry): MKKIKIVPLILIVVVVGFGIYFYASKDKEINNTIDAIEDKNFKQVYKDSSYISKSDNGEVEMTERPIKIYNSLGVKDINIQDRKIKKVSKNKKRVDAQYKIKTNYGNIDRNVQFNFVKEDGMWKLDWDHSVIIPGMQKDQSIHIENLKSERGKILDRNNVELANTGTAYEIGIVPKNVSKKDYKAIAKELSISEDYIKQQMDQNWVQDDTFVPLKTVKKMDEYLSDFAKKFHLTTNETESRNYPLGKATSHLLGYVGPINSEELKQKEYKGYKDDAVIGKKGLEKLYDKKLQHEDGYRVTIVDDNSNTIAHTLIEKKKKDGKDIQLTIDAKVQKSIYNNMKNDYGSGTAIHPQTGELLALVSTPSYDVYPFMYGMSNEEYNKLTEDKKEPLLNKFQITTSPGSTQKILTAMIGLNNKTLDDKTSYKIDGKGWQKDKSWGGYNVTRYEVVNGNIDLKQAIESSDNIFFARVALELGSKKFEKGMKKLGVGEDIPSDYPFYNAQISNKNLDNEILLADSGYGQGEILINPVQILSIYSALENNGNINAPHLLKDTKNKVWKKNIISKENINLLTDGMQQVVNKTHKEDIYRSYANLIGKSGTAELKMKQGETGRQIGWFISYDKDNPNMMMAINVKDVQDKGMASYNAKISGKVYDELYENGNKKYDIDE

[6] = Glomerular Filtration Rate(GFR)of the compound compared to Cilastatin evaluated in Rhesus monkeys at the dose of 10 mg/kg by iv bolus injection; format: ADME, organism-based; set-up: dose 10 mg/kg, route intravenous; details: cercopithecidae, in vivo
[7] = Glomerular Filtration Rate(GFR) evaluated in Rhesus monkeys at the dose of 10 mg/kg by iv bolus injection; format: ADME, organism-based; set-up: dose 10 mg/kg, route intravenous; details: cercopithecidae, in vivo
[8] = Plasma clearance evaluated in Rhesus monkeys at the dose of 10 mg/kg by iv bolus injection; format: ADME, organism-based; set-up: dose 10 mg/kg, route intravenous; details: cercopithecidae
[9] = Renal clearance evaluated in Rhesus monkeys at the dose of 10 mg/kg by iv bolus injection; format: ADME, organism-based, Kidney; set-up: dose 10 mg/kg, route intravenous; details: cercopithecidae, in vivo, read-out: Renal clearance
[10] = Half life evaluated in Rhesus monkeys at the dose of 10 mg/kg by iv bolus injection; format: ADME, organism-based; set-up: dose 10 mg/kg, route intravenous; details: cercopithecidae, in vivo, read-out: Beta t1/2 (converted)
[11] = AUC (area under curve) evaluated in Rhesus monkeys at the dose of 10 mg/kg by iv bolus injection; format: ADME, organism-based, Plasma; set-up: dose 10 mg/kg, route intravenous; details: cercopithecidae
[12] = molecular target: T2, Dipeptidase 1 (Sus scrofa) (UniProt P22412); assay: Susceptibility to mammalian dehydropeptidase, DHP-1(Porcine)
T2 sequence (whole entry): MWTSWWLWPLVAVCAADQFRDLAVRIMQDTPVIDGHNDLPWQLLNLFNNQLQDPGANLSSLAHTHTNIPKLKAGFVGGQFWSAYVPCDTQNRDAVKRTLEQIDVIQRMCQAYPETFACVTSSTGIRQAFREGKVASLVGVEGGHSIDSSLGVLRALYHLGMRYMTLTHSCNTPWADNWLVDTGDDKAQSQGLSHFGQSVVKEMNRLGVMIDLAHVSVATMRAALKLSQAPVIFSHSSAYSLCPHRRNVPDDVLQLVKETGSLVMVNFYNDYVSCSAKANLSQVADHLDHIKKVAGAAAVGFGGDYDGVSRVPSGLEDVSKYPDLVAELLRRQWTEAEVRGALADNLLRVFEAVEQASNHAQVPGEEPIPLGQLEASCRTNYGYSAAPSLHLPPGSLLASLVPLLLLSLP

Enterococcus faecalis [13] = assay: Antibacterial activity against Enterococcus faecalis; format: functional
Enterococcus faecalis [14] = assay: Antibacterial activity against vancomycin-resistant Enterococcus faecalis strain; format: functional
Enterococcus faecium = assay: Antibacterial activity against vancomycin-resistant Enterococcal faecium strain; format: functional
Bacteria = assay: Antibacterial activity against Gram negative bacteria; format: functional
Mus musculus [15] = assay: In vivo antibacterial activity against MSSA MB 2985 strain at the dose ~4 *10e7 cfu in brain heart broth along with antibiotic by sc administration at 0 hour in mice; format: functional
Mus musculus [16] = assay: In vivo antibacterial activity against MSSA MB 2985 strain at the dose ~4 *10e7 cfu in brain heart broth along with antibiotic by administration at 0 hour in mice; format: functional
Staphylococcus sp. = assay: Antibacterial activity against methicillin-resistant coagulase negative Staphylococci (MRCNS); format: functional
Staphylococcus aureus [17] = assay: Antibacterial activity against MSSA (Methicillin-sensitive Staphylococcus aureus); format: functional
Streptococcus pneumoniae = assay: Antibacterial activity against penicillin-resistant Streptococcus pneumoniae; format: functional
Staphylococcus aureus [18] = assay: Antibacterial activity against methicillin-resistant Staphylococcus aureus (MRSA); format: functional
Mus musculus [19] = assay: In vivo antibacterial activity against MRSA 76 virginia strain at the dose ~1 *10e7 cfu in 5 percent hog gastric mucin along with antibiotic by sc administration at 0 and +4 hrs in mice; format: functional
Streptococcus pyogenes [20] = assay: Antibacterial activity against Streptococcus pyogenes
[21] = molecular target: T2, Dipeptidase 1 (Sus scrofa); assay: Susceptibility to mammalian dehydropeptidas, DHP-1(Porcine)
Streptococcus pyogenes [22] = assay: Antibacterial activity against Streptococcus pyogenes; format: functional

Row | Structure (SMILES) | IC50 (MecA) [nM] | GFR [7] [mL/min/kg] | clearance [8] [mL/min/kg] | CL renal [9] [mL/min/kg] | half-life [10] [h] | MIC (Enterococcus faecalis [13]) [µg/mL] | MIC (Enterococcus faecalis [14]) [µg/mL] | MIC (Enterococcus faecium) [µg/mL] | MIC (Bacteria) [µg/mL] | ED50 (Mus musculus [15]) [mg/kg] | MIC (Mus musculus [16]) [µg/mL] | MIC50 (Staphylococcus sp.) [µg/mL] | MIC90 (Staphylococcus sp.) [µg/mL] | MIC (Staphylococcus aureus [17]) [µg/mL] | MIC (Streptococcus pneumoniae) [µg/mL] | MIC50 (Staphylococcus aureus [18]) [µg/mL] | MIC90 (Staphylococcus aureus [18]) [µg/mL] | ED50 (Mus musculus [19]) [mg kg-1 dose-1] | MIC (Mus musculus [19]) [µg/mL] | AUC ([11]; plasma, read-out: AUC) [ng·h/mL] | other results
1 | C[C@@H](O)[C@H]1C(=O)N2C(C(=O)O)=C(SCCN=CN)C[C@H]12 [IMIPENEM ANHYDROUS] | 334000 | – | – | – | – | – | – | – | – | – | – | – | – | – | – | – | – | – | – | – | half-life [1]: 0.6 h; clearance [2]: 6.72 mL/min/kg; CL renal [3]: 5.44 mL/min/kg; Urinary recovery [4]: 82; AUC [5]: 24800 ng·h/mL; GFR [6]: 2.98 mL/min/kg
2 | C[C@@H](O)[C@H]1C(=O)N2C(C(=O)[O-])=C(c3ccc4c(c3)-c3ccc(C[N+]56CC[N+](CC(N)=O)(CC5)CC6)cc3C4=O)C[C@H]12.[Cl-] | 573 | 2.96 | 4.74 | 1.88 | 0.91 | 0.125 | 2 | 16 | 1.05 | 0.042 | 0.004 | 2 | 2 | 0.03 | 0.09 | 1 | 4 | 0.5 | 1 | – | AUC ([11]; in vivo): 35.14 µg/mL; Rate of hydrolysis [12]: 0.055; MIC (Streptococcus pyogenes [20]): < 0.031 µg/mL
3 | C[C@@H](O)[C@H]1C(=O)N2C(C(=O)[O-])=C(c3ccc4c(c3)-c3ccc(C[N+]56CC[N+](CC(N)=O)(CC5)CC6)cc3C4=O)[C@H](C)[C@H]12.[Cl-] | 1320 | 3.48 | 2.95 | 2.72 | 1.35 | 0.5 | 8 | 8 | 3.6 | 0.021 | 0.031 | 4 | 8 | 0.03 | 0.24 | 4 | 4 | 1 | 2 | 56400 | Rate of hydrolysis [21]: 0.021; MIC (Streptococcus pyogenes [22]): < 0.031 µg/mL
4 | C[C@@H](O)[C@H]1C(=O)N2C(C(=O)[O-])=C(c3ccc4c(c3)-c3ccc(C[n+]5ccn(C)c5)cc3C4=O)C[C@H]12 | 1060 | 3.19 | 5.56 | 2.34 | 1.17 | 0.125 (≈ 0.266 µM) | 1 (≈ 2.13 µM) | 4 (≈ 8.52 µM) | 1.37 (≈ 2.92 µM) | 0.034 | 0.008 (≈ 0.017 µM) | 2 (≈ 4.26 µM) | 4 (≈ 8.52 µM) | 0.03 (≈ 0.0639 µM) | < 0.03 | 1 (≈ 2.13 µM) | 2 (≈ 4.26 µM) | 0.92 | 1 (≈ 2.13 µM) | 30400 | Rate of hydrolysis [21]: 0.078; MIC (Streptococcus pyogenes [22]): < 0.031 µg/mL
